Test results taken from paper PMC4815073, “Targeting of tubulin polymerization and induction of mitotic blockage by Methyl 2-(5-fluoro-2-hydroxyphenyl)-1H-benzo[d]imidazole-5-carboxylate (MBIC) in human cervical cancer HeLa cell” (Journal of Experimental & Clinical Cancer Research : CR, 2016).

Experiments:
WRL-68 cells = experiment: MTT cytotoxicity assay, WRL-68 normal liver cells; type: cell-based, human
Text: (§1) The human cervical cancer cell-line, HeLa (CCL-2.2; ATCC, Manassas, VA), HCT-116 (CCL-247; ATCC, Manassas, VA), A549 (CCL-185; ATCC, Manassas, VA), HepG-2 (HB-8065; ATCC, Manassas, VA) and WRL-68 (CL-48; ATCC, Manassas, VA), were obtained from American Type Culture Collection (ATCC). HeLa, A549, HepG2 and WRL68 cells were maintained in Dulbecco’s Modified Eagle Medium (DMEM, Life Technologies, Inc, Rockville, MD). HCT-116 was obtained in McCoy’s 5a Medium Modified (Life Technologies, Inc, Rockville, MD) supplemented with 10 % fetal bovine serum and 1 % penicillin/streptomycin. Cells were incubated at 37 °C in a humidified cell culture 5 % CO2 incubator. Cells were passaged until reaching 70-80-% confluency for experimental purposes.
(§2) Cytotoxicity of MBIC was estimated by MTT assay. Briefly, 1 × 10^4 cells/well were seeded in a 96-well plate and incubated at 37 °C in 5 % CO2. After 24 h, cells were treated with different concentrations (0.02, 0.04, 0.1, 0.2, 0.4, 0.8, 1.5, 3, 6, 12, 25, 50 μM) of MBIC. 0.01 % DMSO was used as vehicle control. Cells were incubated for 24 and 48 h at 37 °C. Subsequently, 50 μl/well of 3-(4,5-dimethylthiazol-2-yl)-2,5-diphenyltetrazolium bromide (MTT, 2 mg/ml) was added and incubated for 2 h. After the incubation, the media was discarded and 100 μl DMSO was replaced into each well to dissolve the formazan crystal. The colorimetric assay was quantified at 570 nm wavelength using Chameleon V microplate reader (Hidex, Turku, Finland). The anti-proliferation activity of MBIC was expressed as an IC50 value. The percentage of cell viability was calculated as described previously.

HCT-116 cells = experiment: MTT cytotoxicity assay, HCT-116; type: cell-based, human; conditions: for IC50: MTT
Text: as §1, §2

HeLa cells [1] = experiment: MTT cytotoxicity assay, HeLa; type: cell-based, human; conditions: for IC50: HeLa, MTT; for SI (Selectivity Index): IC50 WRL-68 / IC50 HeLa
Text: as §1, §2

HepG-2 cells = experiment: MTT cytotoxicity assay, HepG-2; type: cell-based, human; conditions: for IC50: MTT
Text: as §1, §2

A549 cells = experiment: MTT cytotoxicity assay, A549; type: cell-based, human; conditions: for IC50: MTT
Text: as §1, §2

tubulin = target: T1, tubulin (Sus scrofa, UniProt P02550+P02554); experiment: Tubulin polymerization assay; type: biochemical; conditions: 10 μM drug, 3 mg/ml tubulin, 37 °C, 340 nm; untreated 12 mOD/min
T1 construct: purchased Cytoskeleton BK011P
Method: To investigate the effect of MBIC on tubulin polymerization, a fluorescence-based tubulin polymerization assay kit (Cytoskeleton-Cat. # BK011P) was used according to the manufacturer’s protocol. Briefly, 200 μl of pure tubulin protein was re-suspended in 420 μl of ice cold Tubulin Polymerization Buffer (TPB) to give a final concentration of 3 mg/ml tubulin, supplemented with 80 mM PIPES, 2 mM MgCl2, 0.5 mM EGTA, 1 mM GTP, 20 % (v/v) glycerol. 100 μl of tubulin reaction mixture were added to each well in a 96-well plate containing the selected concentration of MBIC (10 μM). […] Samples were mixed well and the tubulin assembly was monitored by an increase in fluorescence emission at 340 nm in kinetic mode for 120 min at 37 °C using a plate reader (Infinite® 200 PRO—Tecan plate reader, USA).

HeLa cells [2] = experiment: Drug combination assay (MTT, Chou-Talalay, CampuSyn); type: cell-based; conditions: Homo sapiens, 24 h, drug alone, read-out: (Dm)IC50 Drug 1 (conventional drug alone)
Method: In order to discover the synergistic effects of MBIC with conventional drugs briefly, cells were seeded in 1 × 10^4 cells/well and were incubated at 37 °C overnight. […] Also, the MBIC, combined with each of the selected conventional drugs in a 1:1 ratio, were diluted in concentration from 50 μM to 0.1 μM. Cell viability assay (MTT assay) was performed 24 h post-treatment and absorbance were measured in a microplate reader to find out the IC50 for each conventional drug alone and in combination with MBIC on HeLa cells. For this analysis, we used the commercial software package CampuSyn (Biosoft, Cambridge, United Kingdom; Ref.9). […] Furthermore, the software produced an automated isobologram and fraction affected-combination index (Fa-CI) plot.

[3] = tested on: HeLa cells expressing EGFP-α-tubulin, EGFP-CENP-A and histone H2B-mCherry; experiment: Live-cell imaging of mitotic spindle; type: cell-based, human; conditions: MBIC 10 μM, nocodazole 2 μM; imaged at 15 min intervals
Method: HeLa cells expressing EGFP-α-tubulin, EGFP-CENP-A and histone H2B-mCherry were grown in glass chambers (Thermo Scientific, USA). Thirty minutes before imaging, the medium was changed to pre-warmed Leibovitz’s L-15 medium (Life Technologies) supplemented with 20 % fetal bovine serum and 20 mM HEPES, pH 7.0. Recordings were made in a temperature-controlled incubator at 37 °C. Images were collected with an Olympus IX-71 inverted microscope (Olympus) controlled by DeltaVision softWoRx (Applied Precision) using a 20x 0.75 NA UPlan SApochromat objective lens (Olympus). Z-series of six sections in 3 μm increments were captured every 15 min. Image stacks were projected.

[4] = Homo sapiens, HCT-116, 24 hours
[5] = Homo sapiens, HCT-116, 48 hours
[6] = IC50 WRL-68 / IC50 HCT-116, 24 hours
[7] = IC50 WRL-68 / IC50 HCT-116, 48 hours
[8] = Homo sapiens, HepG2, HepG-2, 24 hours
[9] = Homo sapiens, HepG2, HepG-2, 48 hours
[10] = IC50 WRL-68 / IC50 HepG-2, 24 hours
[11] = IC50 WRL-68 / IC50 HepG-2, 48 hours
[12] = IC50 WRL-68 / IC50 A549, 24 hours
[13] = IC50 WRL-68 / IC50 A549, 48 hours

T1 sequence (P02550 whole entry): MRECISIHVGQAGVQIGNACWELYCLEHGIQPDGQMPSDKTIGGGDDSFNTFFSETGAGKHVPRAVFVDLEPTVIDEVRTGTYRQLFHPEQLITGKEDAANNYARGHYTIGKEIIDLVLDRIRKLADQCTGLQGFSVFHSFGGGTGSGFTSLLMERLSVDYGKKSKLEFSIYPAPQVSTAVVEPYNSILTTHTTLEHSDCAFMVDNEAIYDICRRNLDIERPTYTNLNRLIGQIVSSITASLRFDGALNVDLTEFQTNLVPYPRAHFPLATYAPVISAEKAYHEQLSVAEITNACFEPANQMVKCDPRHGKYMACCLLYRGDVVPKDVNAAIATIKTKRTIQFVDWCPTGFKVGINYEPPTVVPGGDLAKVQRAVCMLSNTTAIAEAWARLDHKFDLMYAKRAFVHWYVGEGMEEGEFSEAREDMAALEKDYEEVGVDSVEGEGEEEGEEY
T1 sequence (P02554 whole entry): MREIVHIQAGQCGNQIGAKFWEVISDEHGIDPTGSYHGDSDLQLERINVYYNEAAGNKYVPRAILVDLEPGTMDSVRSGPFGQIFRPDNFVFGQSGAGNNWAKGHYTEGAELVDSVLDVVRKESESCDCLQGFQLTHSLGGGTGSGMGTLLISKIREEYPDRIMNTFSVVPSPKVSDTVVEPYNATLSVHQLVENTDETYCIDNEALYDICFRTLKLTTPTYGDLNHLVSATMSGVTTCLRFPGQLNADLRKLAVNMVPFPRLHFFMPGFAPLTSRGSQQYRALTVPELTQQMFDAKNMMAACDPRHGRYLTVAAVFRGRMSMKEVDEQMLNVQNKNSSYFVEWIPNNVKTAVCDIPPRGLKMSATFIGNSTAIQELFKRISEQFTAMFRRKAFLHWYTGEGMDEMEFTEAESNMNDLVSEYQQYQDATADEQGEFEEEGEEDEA

| SMILES | IC50 (WRL-68 cells; Homo sapiens, WRL68, 24 hours) | IC50 (WRL-68 cells; Homo sapiens, WRL68, 48 hours) | IC50 (HCT-116 cells; [4]) | IC50 (HCT-116 cells; [5]) | SI (Selectivity Index) (HCT-116 cells; [6]) | SI (Selectivity Index) (HCT-116 cells; [7]) | IC50 (HeLa cells [1]; Homo sapiens, 24 hours) | IC50 (HeLa cells [1]; Homo sapiens, 48 hours) | SI (Selectivity Index) (HeLa cells [1]; 24 hours) | SI (Selectivity Index) (HeLa cells [1]; 48 hours) | IC50 (HepG-2 cells; [8]) | IC50 (HepG-2 cells; [9]) | SI (Selectivity Index) (HepG-2 cells; [10]) | SI (Selectivity Index) (HepG-2 cells; [11]) | IC50 (A549 cells; Homo sapiens, A549, 24 hours) | IC50 (A549 cells; Homo sapiens, A549, 48 hours) | SI (Selectivity Index) (A549 cells; [12]) | SI (Selectivity Index) (A549 cells; [13]) | Tubulin polymerization maximal velocity (Vmax) (tubulin) | IC50 (HeLa cells [2]) | also measured |
| --- | --- | --- | --- | --- | --- | --- | --- | --- | --- | --- | --- | --- | --- | --- | --- | --- | --- | --- | --- | --- | --- |
| CC(=O)O[C@H]1C(=O)[C@@]2(C)[C@H]([C@H](OC(=O)c3ccccc3)[C@]3(O)C[C@H](OC(=O)[C@H](O)[C@@H](NC(=O)c4ccccc4)c4ccccc4)C(C)=C1C3(C)C)[C@]1(OC(C)=O)CO[C@@H]1C[C@@H]2O [Paclitaxel] | 6.71 ± 0.2 µM | 3.41 ± 0.8 µM | 3.09 ± 0.5 µM | 1.09 ± 0.4 µM | 2.17 | 3.12 | 1.02 ± 0.01 µM | 0.57 ± 0.03 µM | 6.57 | 5.98 | 2.81 ± 0.72 µM | 1.03 ± 0.07 µM | 2.38 | 3.31 | 2.83 ± 0.11 µM | 1.23 ± 0.09 µM | 2.37 | 2.77 | 33 mOD/min | 1.02 ± 0.6 µM | – |
| N.N.[Cl][Pt][Cl] [Cisplatin] | – | – | – | – | 2.57 | 2.56 | – | – | 1.23 | 1.17 | – | – | 1.80 | 1.78 | – | – | 0.54 | 0.54 | – | – | IC50 (WRL-68 cells; 24 hours): 18.6 ± 1.4 µM; IC50 (WRL-68 cells; 48 hours): 10.6 ± 0.7 µM; IC50 (HCT-116 cells; HCT-116, 24 hours): 7.22 ± 0.5 µM; IC50 (HCT-116 cells; HCT-116, 48 hours): 4.12 ± 0.6 µM; IC50 (HeLa cells [1]; 24 hours): 15.07 ± 0.03 µM; IC50 (HeLa cells [1]; 48 hours): 9.02 ± 0.02 µM; IC50 (HepG-2 cells; HepG-2, 24 hours): 10.3 ± 0.5 µM; IC50 (HepG-2 cells; HepG-2, 48 hours): 5.93 ± 0.2 µM; IC50 (A549 cells; A549, 24 hours): 34 ± 0.9 µM; IC50 (A549 cells; A549, 48 hours): 19.5 ± 1.4 µM |
| COC(=O)Nc1nc2ccc(C(=O)c3cccs3)cc2[nH]1 [Nocodazole] | 12.2 ± 0.9 µM | 7.56 ± 0.3 µM | 3.81 ± 0.6 µM | 1.81 ± 0.3 µM | 3.20 | 4.17 | 3.08 ± 0.02 µM | 2.22 ± 0.04 µM | 3.97 | 3.40 | 10.7 ± 0.5 µM | 5.08 ± 0.3 µM | 1.14 | 1.48 | 12.2 ± 0.2 µM | 5.09 ± 0.5 µM | 1.00 | 1.48 | 3 mOD/min | 3.08 ± 0.5 µM | mitotic spindle formation in live-cell imaging [3]: did not form the spindle |
| COc1cccc2c1C(=O)c1c(O)c3c(c(O)c1C2=O)C[C@@](O)(C(=O)CO)C[C@@H]3O[C@H]1C[C@H](N)[C@H](O)[C@H](C)O1 [Doxorubicin] | 3.56 ± 0.9 µM | 1.68 ± 0.09 µM | 0.91 ± 0.2 µM | 0.47 ± 0.3 µM | 3.91 | 3.57 | 0.46 ± 0.04 µM | 0.29 ± 0.04 µM | 7.73 | 5.79 | 8.04 ± 0.8 µM | 3.94 ± 0.07 µM | 0.44 | 0.42 | 0.35 ± 0.07 µM | 0.09 ± 0.01 µM | 10.17 | 18.66 | – | 0.46 ± 0.7 µM | – |
